Assay results as given in article PMC10354055, “An optimized Nurr1 agonist provides disease-modifying effects in Parkinson’s disease models” (Nature Communications, 2023).
Values joined by “and” are separate entries in the source; they are usually repeats but may differ in a detail not shown here. Equal entries are not always repeated.

Columns and labels:
Nurr1-LBD point mutants = biological target: T1, Nurr1-LBD point mutants (Mus musculus, UniProt Q06219); assay: Luciferase assay with point-mutants of Nurr1-LBD, SK-N-BE(2)C cells;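 note: Firefly luciferase normalized to beta-galactosidase activity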; type: cell-based; details: Fig. 1g, WT
T1 construct: expressed in transfected cells; host or cells: SK-N-BE(2)C
T1 sequence (Q06219 whole entry, change not shown, the tested form may be a part): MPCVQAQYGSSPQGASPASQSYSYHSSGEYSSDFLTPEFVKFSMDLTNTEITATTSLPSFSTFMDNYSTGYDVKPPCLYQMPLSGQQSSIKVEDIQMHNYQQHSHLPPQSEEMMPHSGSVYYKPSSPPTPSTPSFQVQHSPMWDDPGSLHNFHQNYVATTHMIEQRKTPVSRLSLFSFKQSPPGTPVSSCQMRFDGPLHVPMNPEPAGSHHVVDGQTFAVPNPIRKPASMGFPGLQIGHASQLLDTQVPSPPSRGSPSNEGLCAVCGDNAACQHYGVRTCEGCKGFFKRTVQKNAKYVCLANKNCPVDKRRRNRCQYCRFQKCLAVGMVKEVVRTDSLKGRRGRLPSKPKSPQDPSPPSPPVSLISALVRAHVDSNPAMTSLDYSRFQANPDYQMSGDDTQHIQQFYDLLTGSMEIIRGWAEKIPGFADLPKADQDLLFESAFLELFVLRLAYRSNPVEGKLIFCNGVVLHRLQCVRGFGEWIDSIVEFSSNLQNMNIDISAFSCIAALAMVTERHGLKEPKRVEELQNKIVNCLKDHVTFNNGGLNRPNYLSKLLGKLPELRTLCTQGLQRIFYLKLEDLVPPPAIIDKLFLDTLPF
Description: Nurr1 transactivity was normalized to β-galactosidase activity.
Nurr1 mutants were generated using the QuikChange ǁ XL site-directed mutagenesis kit (Agilent Technologies) according to the manufacturer’s instruction. Mutagenesis reactions were carried out on the plasmid of mouse Nurr1 cloned into pcDNA3.1 backbone, and then verified by sequencing.

MPTP-induced male mice [1] = assay: IHC/stereology of TH+ fibers, TH+ DA neurons and NeuN+ neurons, MPTP-induced mice; type: in vivo, mouse
Description: (§1) MPTP (Sigma-Aldrich) was intraperitoneally (i.p.) injected (30 mg/kg) for 5 days (Day 1-5). […] To test dyskinetic involuntary behavior, an L-DOPA injected group was included, which received 50 mg/kg of L-DOPA and 15 mg/kg of benserazide (Sigma-Aldrich) (i.p.) for 16 days (Day 1–16). All compounds were administered 6 h post-MPTP injection to avoid any effect of compounds on the MPTP metabolism in the brain. Motor and non-motor related behavior tests were performed on the following days as described in Fig. 4a in an assessor- and observer-blinded fashion. Pre-training and baseline setup for motor-related behaviors were performed 3 days prior to the injections. Mice were sacrificed and subjected to immunohistochemistry. Mice were housed at the Animal Care Facilities of McLean Hospital under a 12-h light/12-h dark cycle, ambient temperature and humidity. Animals were handled in accordance with McLean Hospital’s Institutional Animal Care and Use Committee (Protocol #: 2015N000002) and followed National Institutes of Health guidelines.
(§2) Images were acquired using a KEYENCE microscope and quantified as the number or optical density of immunoreactive cells using ImageJ software.
(§3) The numbers of TH^+ DA neurons, NeuN^+ neurons, pS129 αSyn^+ cells in the SN and Iba-1^+ microglia in the SN and striatum were stereologically counted in six coronal sections (30 µm thickness) taken every 6th section (180 µm intervals) for each brain. The boundaries of the SN and striatum were delimited at low magnification (4X) to estimate each total area. Immunoreactive cells were counted with images taken at high magnification (×40) by a single blinded investigator. The group mean of the total number of immunoreactive cells from each brain was transformed as percentage of the number in the control group (%). For AAV-αSyn-induced mice, the group mean of the total number of cells in the ipsilateral side was transformed as a percentage of that observed in the contralateral side.

MN9D cells = assay: Dopaminergic gene expression (TH, DAT, AADC, VMAT2, c-Ret), qRT-PCR, MN9D cells with MPP+; type: cell-based, mouse; details: for Relative TH mRNA expression (fold of Cont.): Fig. S5a; for Relative DAT mRNA expression (fold of Cont.): Fig. S5b; for Relative AADC mRNA expression (fold of Cont.): Fig. S5c; for Relative c-Ret mRNA expression (fold of Cont.): Fig. S5e; for Relative VMAT mRNA expression (fold of Cont.): Fig. S5d
Description: (§4) Total RNA was extracted using the GeneJET RNA Purification Kit (Thermo Fisher Scientific) and 100 ng of RNA was subjected to cDNA synthesis using Invitrogen Superscript cDNA Synthesis Kit (Invitrogen) according to the manufacturer’s protocol. qRT-PCR was performed using a CFX Connect Real-Time System (Bio-Rad) in a 20 μl volume mixture containing 2X SsoAdvanced Universal SYBR Green Supermix (Bio-Rad), 100 ng/μl of forward and reverse primers, and 1 μl of cDNA sample. Gene expression levels were quantified by the 2^∆∆CT method (Ct of target gene—Ct of glyceraldehyde-3-phosphate dehydrogenase (GAPDH). The following primers were used for qRT-PCR: TH forward: 5′-[…]-3′, reverse: 5′-[…]-3′; DAT forward: 5′-[…]-3′, reverse: 5′-[…]-3′; AADC forward: 5′-[…]-3′, reverse: 5′-[…]-3′; VMAT2 forward: 5′-[…]-3′, reverse: 5′-[…]-3′; c-Ret forward: 5′-[…]-3′, reverse: 5′-[…]-3′; TNFα forward: 5′-[…]-3′; reverse: 5′-[…]-3′; GAPDH, forward 5′-[…]-3′, reverse 5′-[…]-3′.

Nurr1 protein = Nurr1 protein level, Western blot, MN9D cells with MPP+ or αSyn overexpression; type: cell-based, mouse; details: for Relative Nurr1 expression (% of Cont.): Fig. S4g; for Relative Nurr1 expression (% of +GFP Basal): Fig. S4i
Description: Experiments were confirmed by duplicate measurements of the same sample. Quantification of immunoreactive bands was performed using ImageJ software (NIH, Bethesda, MD, USA) and expressed as a relative ratio against β-actin.
(§5) Lenti-GFP, -αSyn^WT, and -αSyn^A53T viruses were generated separately by co-transfecting each shuttle plasmid with lentivirus packaging plasmids into HEK293T cells using lipofectamine 2000 (Invitrogen). Briefly, 2 μg each FUW inducible shuttle plasmid, 2 μg FUW-rtTA, 2 μg psPax2 and 1.5 μg MD2.G were mixed and transfected into HEK293T cells. After 48 h, viral supernatants were collected and centrifuged at 1000g for 10 min, and subsequently filtered through a 0.45 μm filter. Lentiviruses were transduced into MN9D cells with 8 μg/ml of polybrene and the viral supernatant was removed and replaced with fresh medium a day after transduction.

MPTP-induced male mice [2] = assay: IHC of Iba-1+ microglia in STR and SNpc, MPTP-induced mice; type: in vivo, mouse
Description: as §1, §2, §3

Iba-1+ microglia = assay: Primary rat VM neuron-glia co-culture, Iba-1+ microglia (ICC); type: cell-based; details: for Iba-1+ cells (% of control): Fig. 2g
Description: Primary rat VM neuron-glia co-culture was prepared from E14 rat embryos (Fisher 344; Charles River)[33]. […] After blocking with 10% normal donkey serum (NDS) and 0.1% Triton X-100 solution for 1 h at room temperature, cells were incubated with primary antibodies against TH (1:1,000; Pel Freez, P40401) and Iba-1 (1:500; Abcam, ab5076) in 1% NDS and 0.1% Triton X-100 solution for overnight at 4 °C. Alexa Fluor 568- or Alexa Fluor 488-conjugated anti-rabbit or anti-goat secondary antibodies (1:500; Invitrogen) were incubated following the primary antibody incubation, and then cover glasses were mounted using FluoShield^TM mounting media (Sigma-Aldrich). Fluorescence images were taken using a KEYENCE microscope (BZ-X800; KEYENCE).

Nurr1 mRNA = Nurr1 mRNA level, qRT-PCR, MN9D cells; type: cell-based, mouse; details: for Relative Nurr1 mRNA expression (fold of Cont.): Fig. S4f; for Relative Nurr1 mRNA expression (fold of +GFP Basal): Fig. S4h
Description: as §4, §5

## CCN1CCN(c2cc(N3CCN(CC)CC3)nc(NCCNc3ccnc4cc(Cl)ccc34)n2)CC1 [4A7C-301, N^1-(4,6-bis(4-ethylpiperazin-1-yl)pyrimidin-2-yl)-N^2-(7-chloroquinolin-4-yl)ethane-1,2-diamine]
Nurr1-LBD point mutants
  Luciferase activity (fold): 18.0755 fold and 17.4184 fold and 17.5507 fold and 18.6728 fold
MPTP-induced male mice [1]; Figure 4j, MPTP-induced mice, individual animal values
  TH+ neurons in SNpc (% of control): 63.18 % of control and 108.74 % of control and 134.92 % of control and 132.65 % of control and 112.51 % of control and 66.45 % of control and 53.87 % of control
MPTP-induced male mice [1]; Figure 4k, MPTP-induced mice, individual animal values
  NeuN+ neurons in SNpc (% of control): 85.48 % of control and 97.85 % of control and 98.38 % of control and 115.18 % of control
MPTP-induced male mice [1]; Figure 4h, MPTP-induced mice, individual animal values
  TH fiber density in STR (% of control): 116.18 % of control and 48.63 % of control and 93.47 % of control and 82.29 % of control and 106.49 % of control and 100.23 % of control and 91.26 % of control
MPTP-induced male mice [1]; compared to MPTP only group
  TH+ fibers in STR, TH+ DA neurons and NeuN+ neurons in SN (in words): significantly retained
MN9D cells; w/ MPP+
  Relative TH mRNA expression (fold of Cont.): 1.331 fold of Cont. and 1.238 fold of Cont. and 1.4297 fold of Cont.
  Relative DAT mRNA expression (fold of Cont.): 1.51 fold of Cont. and 1.43 fold of Cont. and 1.594 fold of Cont.
  Relative AADC mRNA expression (fold of Cont.): 1.175 fold of Cont. and 1.144 fold of Cont. and 1.206 fold of Cont.
  Relative c-Ret mRNA expression (fold of Cont.): 0.9952 fold of Cont. and 1.121 fold of Cont. and 0.8833 fold of Cont.
  Relative VMAT mRNA expression (fold of Cont.): 1.0229 fold of Cont. and 0.9814 fold of Cont. and 1.066 fold of Cont.
MN9D cells; w/o MPP+
  Relative TH mRNA expression (fold of Cont.): 2.626 fold of Cont. and 3.055 fold of Cont. and 2.8325 fold of Cont.
  Relative DAT mRNA expression (fold of Cont.): 3.527 fold of Cont. and 3.949 fold of Cont. and 3.732 fold of Cont.
  Relative AADC mRNA expression (fold of Cont.): 1.767 fold of Cont. and 1.615 fold of Cont. and 1.689 fold of Cont.
  Relative c-Ret mRNA expression (fold of Cont.): 1.827 fold of Cont. and 2.268 fold of Cont. and 2.036 fold of Cont.
  Relative VMAT mRNA expression (fold of Cont.): 2.085 fold of Cont. and 1.956 fold of Cont. and 2.019 fold of Cont.
MN9D cells; MN9D, decreased by MPP+
  dopaminergic gene expression (in words): significantly rescued
MN9D cells; dopaminergic gene expression, MN9D and VM primary cells
  concentration for similar effect, times lower than CQ: 20–40 times
Nurr1 protein; w/ MPP+
  Relative Nurr1 expression (% of Cont.): 99.091 % of Cont. and 100.486 % of Cont. and 100.693 % of Cont.
Nurr1 protein; w/o MPP+
  Relative Nurr1 expression (% of Cont.): 101.351 % of Cont. and 99.92 % of Cont. and 104.55 % of Cont.
Nurr1 protein; + GFP
  Relative Nurr1 expression (% of +GFP Basal): 98.029 % of +GFP Basal and 101.483 % of +GFP Basal and 98.211 % of +GFP Basal
Nurr1 protein; + αSynA53T
  Relative Nurr1 expression (% of +GFP Basal): 84.572 % of +GFP Basal and 86.142 % of +GFP Basal and 86.409 % of +GFP Basal
Nurr1 protein; + αSynWT
  Relative Nurr1 expression (% of +GFP Basal): 92.781 % of +GFP Basal and 95.357 % of +GFP Basal and 90.953 % of +GFP Basal
Nurr1 protein; against MPP+ and αSynWT overexpression
  Nurr1 protein levels (in words): significantly restored
Nurr1 protein; against αSynA53T overexpression
  Nurr1 protein levels (in words): maintained
MPTP-induced male mice [2]; Figure 4m, MPTP-induced mice, individual animal values
  Iba-1+ cells in STR (% of control): 125.5 % of control and 139.6 % of control and 120.61 % of control and 117.09 % of control and 138.52 % of control and 80.29 % of control and 135.9 % of control
MPTP-induced male mice [2]; Figure 4n, MPTP-induced mice, individual animal values
  Iba-1+ cells in SNpc (% of control): 160.25 % of control and 167.13 % of control and 152.39 % of control and 127.81 % of control and 217.28 % of control and 189.75 % of control and 198.6 % of control
MPTP-induced male mice [2]; MPTP mice
  Iba-1+ microglia in STR and SN (in words): markedly reduced
Iba-1+ microglia; 4A7C-301 only, 50 nM, 0.05 µM
  Iba-1+ cells (% of control): 77.52 % of control and 86.67 % of control and 96.15 % of control
Iba-1+ microglia; 4A7C-301 only, 500 nM, 0.5 µM
  Iba-1+ cells (% of control): 69.77 % of control and 67.62 % of control and 86.92 % of control
Iba-1+ microglia; + LPS, 5 nM, 0.005 µM
  Iba-1+ cells (% of control): 240.31 % of control and 188.57 % of control and 210 % of control
Iba-1+ microglia; + LPS, 50 nM, 0.05 µM
  Iba-1+ cells (% of control): 160.47 % of control and 128.57 % of control and 139.23 % of control
Iba-1+ microglia; + LPS, 500 nM, 0.5 µM
  Iba-1+ cells (% of control): 102.4 % of control and 80.95 % of control and 100.31 % of control
Iba-1+ microglia; + LPS, 1000 nM, 1 µM
  Iba-1+ cells (% of control): 86.82 % of control and 87.62 % of control and 103.69 % of control
Iba-1+ microglia; + MPP+, 5 nM, 0.005 µM
  Iba-1+ cells (% of control): 114.73 % of control and 125.71 % of control and 144.62 % of control
Iba-1+ microglia; + MPP+, 50 nM, 0.05 µM
  Iba-1+ cells (% of control): 96.12 % of control and 105.71 % of control and 78.46 % of control
Iba-1+ microglia; + MPP+, 500 nM, 0.5 µM
  Iba-1+ cells (% of control): 64.34 % of control and 63.81 % of control and 42.31 % of control
Iba-1+ microglia; + MPP+, 1000 nM, 1 µM
  Iba-1+ cells (% of control): 42.64 % of control and 72.38 % of control and 48.46 % of control
Iba-1+ microglia; against LPS
  concentration of optimal suppression of microglial activation: 500 nM
  concentration of optimal suppression, times lower than CQ: 40 times
Nurr1 mRNA; w/ MPP+
  Relative Nurr1 mRNA expression (fold of Cont.): 0.4287 fold of Cont. and 0.414 fold of Cont. and 0.4438 fold of Cont.
Nurr1 mRNA; w/o MPP+
  Relative Nurr1 mRNA expression (fold of Cont.): 1.004 fold of Cont. and 0.9452 fold of Cont. and 0.974 fold of Cont.
Nurr1 mRNA; + GFP
  Relative Nurr1 mRNA expression (fold of +GFP Basal): 1.067 fold of +GFP Basal and 0.9407 fold of +GFP Basal and 1.002 fold of +GFP Basal
Nurr1 mRNA; + αSynA53T
  Relative Nurr1 mRNA expression (fold of +GFP Basal): 0.5837 fold of +GFP Basal and 0.5113 fold of +GFP Basal and 0.5463 fold of +GFP Basal
Nurr1 mRNA; + αSynWT
  Relative Nurr1 mRNA expression (fold of +GFP Basal): 0.7154 fold of +GFP Basal and 0.8045 fold of +GFP Basal and 0.7587 fold of +GFP Basal
Nurr1 mRNA; MPP+ or αSyn overexpression
  Nurr1 mRNA levels (in words): did not alter
